Legend:
[1] = target: EP4 receptor (Homo sapiens, UniProt P35408); test: Cellular receptor functional assay (cAMP), EP4; format: cell-based; parameters: expressed in transfected cells; host or cells: CHO cells; details: for Antagonist effect, cAMP measurement: in presence of PGE2
Procedure: FIG. 13. […] A: Cellular functional assay for EP2; B: Cellular functional assay for […].
To determine whether the inhibitory effect of DA001 on the ligand binding to EP receptors results from agonist or antagonist activity, DA001 was evaluated at a single concentration (10 μM) on cellular-specific receptor functional assays. Upon ligand binding, the EP receptors are activated which leads to an increase in intracellular cyclic AMP.
DA001 (10 μM) was subjected to ligand binding assay with the human EP1 or EP4 receptor over-expressing CHO cells. Results are expressed as a percent of control specific agonist response [100-(measured specific response/control specific agonist response)×100] obtained in the presence of DA001.
DA001 was evaluated at 6 concentrations in cellular assays assessing receptor function. Upon ligand binding, the EP2 and EP4 receptor is activated which leads to an increase in intracellular cyclic AMP.
DA021 inhibits PGE2 ligand binding to EP1, EP2 and EP4 receptors. To determine whether the inhibitory effect is due to agonist or antagonist activity, DA021 was evaluated and compared at 1 concentration (30 uM) in cellular assays assessing receptor function. Upon ligand binding, the EP receptors are activated which leads to an increase in intracellular cyclic AMP.

[2] = system: MOG-induced IL-17 in primary splenocytes; test: IL-17 Quantikine ELISA in primary splenocytes of EAE mice; format: cell-based; details: exogenous compound 30 μM; for decrease of IL-17 in response to exogenous compound: splenocytes of compound-treated EAE mice (100 mg/kg); for reduction in the amount of IL-17: splenocytes of vehicle-treated EAE mice, MOG 25 μg/mL, 48 hrs
Procedure: On day 21, EAE mice were sacrificed by cervical dislocation and spleens were removed aseptically. The removed spleens were then cut with sterilized scissors and strained through […] mesh (BD Bioscience) with a plunger of 5 mL syringe (BD Bioscience) in 9 mL of RPMI 1640 (Invitrogen) with 100 U/mL penicillin and 100 μg/mL streptomycin (Sigma). The cell mixture was then added to 9 mL of Lympholyte (Cedarlane Laboratories) for gradient separation of splenocytes from red bloods cells by centrifugation at 1500 g for 20 min. After the centrifugation, the lympholyte layer containing splenocytes were carefully removed and washed with 10 mL of RPMI 1640 at 800 g for 10 min for three times. The isolated splenocytes were seeded onto different plate format and cultured with RPMI 1640 medium (Invitrogen) supplement with 10% heat inactivated fetal bovine serum (Invitrogen) and 100 U/mL penicillin and 100 μg/mL streptomycin at 37° C. CO2 incubator.
Splenocytes from EAE mice were cultured at the density of 1×10^6 cells in 12-well plates (Falcon) in the absence or presence of the MOG peptide (25 μg/mL) (Hooke Laboratories), DA001 and DA021 (30 μM) with RPMI 1640 medium (Invitrogen) supplement with 10% heat inactivated fetal bovine serum (Invitrogen) and 100 U/mL penicillin and 100 μg/mL streptomycin (Sigma) for 48 h. After 48 h, the supernatants were collected by pelleting the cells at 300 g for 10 min at 4° C. 50 μL of the each sample was added to the microtiter plate provided by the manufacturer of the Quantikine ELISA assay kit (R and D systems). Additional 50 μL of assay diluents buffer was added and incubated at room temperature for 2 h. […] Subsequently, 100 μL of stop solution was added to each well and the plate was read in 450 nm wavelength on a microplate reader (Dynex Revelation 2.2).
(§1) Cells were cultured in RPMI 1640 medium supplement with 10% heat inactivated fetal bovine serum and penicillin/streptomycin, in the absence or presence of MOG (25 μg/mL, Ex) with or without DA001 or DA021 (30 μM, Ex). […] The amount of IL-17 was calculated based on the standard curve established during the assay. […]
as §1, with “DA001” for “DA001 or DA021”
as §1, with “without” for “without DA001 or”

EP4 receptor, sequence (P35408 whole entry): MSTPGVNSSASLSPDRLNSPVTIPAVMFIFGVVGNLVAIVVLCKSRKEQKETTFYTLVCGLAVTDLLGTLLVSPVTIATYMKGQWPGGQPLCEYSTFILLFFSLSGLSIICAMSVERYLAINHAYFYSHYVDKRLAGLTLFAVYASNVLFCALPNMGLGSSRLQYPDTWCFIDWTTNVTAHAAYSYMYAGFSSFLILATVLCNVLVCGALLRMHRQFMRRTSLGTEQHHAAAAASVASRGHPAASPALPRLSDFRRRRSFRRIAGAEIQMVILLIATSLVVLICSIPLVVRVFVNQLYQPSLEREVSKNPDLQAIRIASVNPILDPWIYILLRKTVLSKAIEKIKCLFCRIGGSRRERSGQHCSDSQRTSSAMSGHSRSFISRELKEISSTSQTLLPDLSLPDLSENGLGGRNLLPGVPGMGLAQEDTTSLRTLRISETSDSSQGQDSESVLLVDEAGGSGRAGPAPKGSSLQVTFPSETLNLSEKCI

C=C(C)[C@@H]1CC[C@]2(/C=N/O)CC[C@]3(C)C(CCC4[C@@]5(C)CCC(=O)[C@@](C)(CO)[C@@H]5CC[C@]43C)C12 (some centres unmarked) [DA021]
Antagonist effect, cAMP measurement ([1]; EP4 receptor, 30 uM): 18
decrease of IL-17 in response to exogenous compound [2]: 89%
reduction in the amount of IL-17 [2]: 68%

C=C(C)[C@@H]1CC[C@]2(C(=O)O)CC[C@]3(C)C(CC[C@@H]4[C@@]5(C)CC[C@H](O[C@@H]6OC[C@H](O)[C@H](O)[C@H]6O[C@@H]6O[C@@H](C)[C@H](O)[C@@H](O)[C@H]6O)[C@@](C)(CO)[C@@H]5CC[C@]43C)[C@@H]12 (stereo partly drawn) [DA001, 3-O-[α-L-rhamnopyranosyl-(1→2)-α-L-arabinopyranosyl]-3,23-dihydroxy-20(29)-lupen-28-oic acid]
Agonist effect, cAMP measurement ([1]; EP4 receptor, 10 μM): −11%
Antagonist effect, cAMP measurement ([1]; EP4 receptor, 10 μM): 41%
IC50 ([1]; inhibition of PGE2-induced cAMP increase, 6 concentrations, read-out: IC50, antagonist effect): 20 µM
decrease of IL-17 in response to exogenous compound [2]: 51%
reduction in the amount of IL-17 [2]: 65%

Source: US9029414B2, “Triterpenoid compounds and methods of use thereof” (Biotechnology Research Corporation, priority 2008, dated 2015)
